Experimental data reported in US10316034B2, “Pharmaceutical salt forms of an inhibitor of semicarbazide-sensitive amine oxidase (SSAO)” (BENEVOLENTAI CAMBRIDGE LIMITED, priority 2015, dated 2019).
“Also recorded” adds a separate entry of the source. Read-outs that look alike come from different tables or passages of the source. Blank lines part the entries; values can stand above or below the molecule they belong to.

Legend:
Format in all cases: physicochemical
[1] = Hygroscopicity on storage at controlled temperature and relative humidity
Method: The four crystalline salts were tested in order to determine their ease of handling, hygroscopicity, and thermal stability. The hydrochloride and phosphate salts have the advantage of improved handling properties over the free base glass/gum by virtue of their crystallinity. […] Both salts deliquesced on overnight storage at 40° C. in an environment having 75% relative humidity.
The mesylate and sulphate salts have the advantage of improved handling properties over the free base gum by virtue of their crystallinity. […] The mesylate salt deliquesced following storage for 3 days at 40° C. in an environment having 75% relative humidity. The sulphate salt was unchanged after storage for 7 days at 40° C. in an environment having 75% relative humidity.

[2] = Hygroscopicity during long term storage, assessed by Karl Fisher (KF) titration; settings: GMP-type packaging with desiccant
Method: The water content of each sample was measured on a Mettler Toledo DL39 Coulometer using Hydranal Coulomat AG reagent and an argon purge. Weighed solid samples were introduced into the vessel on a platinum TGA pan which was connected to a subaseal to avoid water ingress. Approx 10 mg of sample was used per titration and duplicate determinations were made.
(§1) (3S)-Tetrahydrofuran-3-yl (4S)-4-isopropyl-1,4,6,7-tetrahydro-5H-imidazo[4,5-c]-pyridine-5-carboxylate mesylate was also assessed for stability and hygroscopicity when dispensed in 3 g aliquots in double LDPE liners, sealed with cable tie and placed, with a desiccant pouch into a foil bag, which was subsequently heat-sealed. The foil bag was then placed into an HDPE keg fitted with an HDPE lid. These conditions mirror typical GMP level storage conditions. Stability was assessed by HPLC and hygroscopicity was assessed by Karl Fisher (KF) titration.

[3] = Stability during long term storage, assessed by HPLC; settings: GMP-type packaging with desiccant
Method: Purity analysis was performed on an Agilent HP1100 series system equipped with a diode array detector and using ChemStation software vB.02.01-SR1 using the method detailed below.
as §1

[4] = overnight storage at 40° C., 75% relative humidity
[5] = after 6 months at 40° C./75% RH

- Hygroscopicity (in words) [1]: hygroscopic
SMILES: CC(C)[C@H]1c2[nH]cnc2CCN1C(=O)O[C@H]1CCOC1 [Free base, (3S)-Tetrahydrofuran-3-yl (4S)-4-isopropyl-1,4,6,7-tetrahydro-5H-imidazo[4,5-c]pyridine-5-carboxylate]

SMILES: CC(C)[C@H]1c2nc[nH]c2CCN1C(=O)O[C@H]1CCOC1.O.O=S(=O)(O)O [Sulfate salt (.1.5H2O), (3S)-Tetrahydrofuran-3-yl (4S)-4-isopropyl-1,4,6,7-tetrahydro-5H-imidazo[4,5-c]-pyridine-5-carboxylate sulphate hydrate]
- Hygroscopicity ([1]; 40° C./75% RH for up to 7 days, listed as sulphate salt, sulphate hydrate): unchanged
- Hygroscopicity ([1]; 40° C./75% RH for up to 7 days, sulphate hydrate): No change at 40° C./

SMILES: CC(C)[C@H]1c2nc[nH]c2CCN1C(=O)O[C@H]1CCOC1.Cl [Hydrochloride salt, (3S)-Tetrahydrofuran-3-yl (4S)-4-isopropyl-1,4,6,7-tetrahydro-5H-imidazo[4,5-c]-pyridine-5-carboxylate hydrochloride]
- Hygroscopicity (in words) ([1]; hydrochloride): somewhat hygroscopic; also recorded: highly hygroscopic
- Hygroscopicity [1, 4]: deliquesced

SMILES: CC(C)[C@H]1c2nc[nH]c2CCN1C(=O)O[C@H]1CCOC1.CS(=O)(=O)O [Mesylate salt, (3S)-Tetrahydrofuran-3-yl (4S)-4-isopropyl-1,4,6,7-tetrahydro-5H-imidazo[4,5-c]-pyridine-5-carboxylate mesylate]
- Water uptake (KF) [2, 5]: 0.1%
- Water uptake (KF) ([2]; over 3 years at 25° C./60% RH): no water uptake
- Degradation (HPLC) [3, 5]: 0.1%
- Degradation (HPLC) ([3]; over 3 years at 25° C./60% RH): 0.1%
- Hygroscopicity ([1]; 40° C./75% RH after 3 days, listed as mesylate salt, mesylate): deliquesced

SMILES: CC(C)[C@H]1c2nc[nH]c2CCN1C(=O)O[C@H]1CCOC1.O=P(O)(O)O [Phosphate salt, (3S)-Tetrahydrofuran-3-yl (4S)-4-isopropyl-1,4,6,7-tetrahydro-5H-imidazo[4,5-c]-pyridine-5-carboxylate phosphate]
- Hygroscopicity [1, 4]: deliquesced
- Hygroscopicity (in words) ([1]; phosphate): somewhat hygroscopic; also recorded: highly hygroscopic
